Laboratory results published in BindingDB's records for doi:10.1016/s0960-894x(00)00465-0 (Boehringer Ingelheim Pharmaceuticals, 2001).
Non-standard residues stand in square brackets, D forms with d. Residues, ends and D or L forms follow the SMILES beside them. *: point of attachment. Hyp = O=C(O)[C@@H]1C[C@@H](O)CN1; Chg = N[C@H](C(=O)O)C1CCCCC1; Nva = CCC[C@H](N)C(=O)O; X1 = c1ccc2cc(C*)ccc2c1

Assay: Compound was evaluated for its inhibitory activity against porcine pancreatic elastase (PPE)

**Q.** With `CCC[C@H](NC(=O)[C@@H]1C[C@@H](OCc2ccc3ccccc3c2)CN1C(=O)[C@@H](NC(=O)[C@@H](NC(=O)[C@@H](CCC(=O)O)NC(=O)[C@H](CC(=O)O)NC(C)=O)C1CCCCC1)C(C)C)C(=O)O` [(S)-2-{[(2S,4R)-1-((S)-2-{(S)-2-[(R)-2-((S)-2-Acetylamino-3-carboxy-propionylamino)-4-carboxy-butyrylamino]-2-cyclohexyl-acetylamino}-3-methyl-butyryl)-4-(naphthalen-2-ylmethoxy)-pyrrolidine-2-carbonyl]-amino}-pentanoic acid] (Ac-D[dE][Chg]V[Hyp](X1)[Nva]-OH) as the molecule, how does the IC50 read?
**A.** > 300 µM
